The text below walks through data of patent US20030232986A1, “Inhibitors of caspases” (Vertex Pharmaceuticals Incorporated, priority 1998, published 2003).

Usually pIC50 stands for the IC50 on a negative log10 scale, so that one unit is a factor of ten. High values mean a small IC50, low ones a large IC50.

Structures are written as SMILES. pIC50: −log10 of the molar value.

A short description of data set [1]: Single pass perfusion in rat: GI wall and liver metabolism, biliary excretion. Format: in vitro ADME. As to conditions: for f (g) Xf (h): GI wall metabolism f(g) x liver metabolism f(h). Here is the method: Single pass perfusion studies in rat were performed to assess gastrointestinal (GI) wall metabolism (f(g)), liver metabolism (f(h)), and biliary excretion. The method used has been described in Pang, C. S., J. Pharmacol. Exp. Therapeutics, 333, pp. 788-798 (1984).

The subject of data set [2] is Human whole blood, IL-1β production. Description: Whole blood assay for IL-1β production. The class given is cell-based. The settings on record: LPS-stimulated whole blood, IL-1β by ELISA. In outline: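 LPS-stimulated (5.0 ng/ml final) human whole blood incubated with test compound in saline (or plasma/PBS-5% DMSO for hydrophobic compounds) at 30° C for 16-18 hr. Plasma IL-1β then measured by ELISA at 1:200 dilution, against no-LPS, no-inhibitor and vehicle controls.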
On the technique in general: An ELISA detects its analyte on a solid surface through an enzyme-linked reagent.

Data set [3] has as its system Human Peripheral Blood Mononuclear Cells (PBMC), mature IL-1β. Description: PBMC cell assay: IL-1β assay with human peripheral blood mononuclear cells. The class given is cell-based. As to conditions: LPS-stimulated human PBMC, mature IL-1β in supernatant by ELISA. In outline:
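Donor PBMC (suspension at 6×10^6 cells/ml) or adherent-enriched monocytes were stimulated with 5 ng/ml LPS (final) alongside 5–6 compound dilutions bracketing the ICE Ki, at 0.1% DMSO final, for 16–18 hr at 37° C, 5% CO2. Mature IL-1β in supernatants was measured by ELISA; IC50 was calculated relative to LPS-only controls.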

As to `C[C@H](NC(=O)c1ccc(N)c(Cl)c1)C(=O)N1CCC[C@H]1C(=O)N[C@H](C=O)CC(=O)O` [Example 122b, 3-({-[2-(4-Amino-3-chloro-benzoylamino)-propionyl]-pyrrolidine-2-carbonyl}-amino)-4-oxo-butyric acid], in data set [1], the “Biliary Excretion” value is “A (category “A” indicates <5%)” and the “f (g) Xf (h)” value is recorded as “C (Category “C” indicates 0.5-0.75)”. The pIC50 in data set [2] was above 5.60. Besides, the pIC50 in data set [3] is 6.00 to 6.30.

On to `COc1c(Cl)cc(C(=O)N[C@@H](C)C(=O)N2CCC[C@H]2C(=O)N[C@H](C=O)CC(=O)O)cc1Cl` [Example 122c, 3-({1-[2-(3,5-Dichloro-4-methoxy-benzoylamino)-propionyl]-pyrrolidine-2-carbonyl}-amino)-4-oxo-butyric acid], for which, in data set [1], the “Biliary Excretion” value is listed as “B (Category “B” indicates 5-10%)” and the “f (g) Xf (h)” value is on record as “C (Category “C” indicates 0.5-0.75)”. This molecule showed a negative logarithm of the IC50 (pIC50) in data set [2] of 5.12 to 5.60. This molecule also showed a pIC50 in data set [3] below 5.70.

For the molecule `COc1c(C)cc(C(=O)N[C@@H](C)C(=O)N2CCC[C@H]2C(=O)N[C@H](C=O)CC(=O)O)cc1C` [Example 122d, 3-({1-[2-(4-Methoxy-3,5-dimethyl-benzoylamino)-propionyl]-pyrrolidine-2-carbonyl}-amino)-4-oxo-butyric acid], in data set [1], the “Biliary Excretion” value is given as “A (category “A” indicates <5%)”. In addition, the “f (g) Xf (h)” value in data set [1] is “C (Category “C” indicates 0.5-0.75)”. The negative-log IC50 (pIC50) is above 5.60 in data set [2] and 6.00 to 6.30 in data set [3].
